Results published in patent publication US11485987B2, “Methods for inducing bioorthogonal reactivity” (University of Delaware, priority 2015, dated 2022).

Key:
[1] = Electrochemical oxidation / cyclic voltammetry; assay type: physicochemical; conditions: phosphate buffer pH 7.0, vs Ag/AgCl reference
Protocol: Compound 3a has a maximum in the UV-vis spectrum at 292 nm, and 4a has a maximum at 325 nm with a less intense peak at 525 nm (FIG. 2). […] This isosbestic point was also conserved in the photocatalytic and enzymatic (FIG. 2) oxidations of 3a described below, and the spectroscopic changes at 292 and 325 nm were routinely used for monitoring reaction progress.
All electrochemistry was performed using a CHI-620D potentiostat/galvanostat. Cyclic voltammetry was performed using a standard three-electrode configuration. CV scans were recorded for quiescent solutions using a platinum disk working electrode (2.0 mm diameter CH Instruments) and a platinum wire auxiliary electrode. All potentials were measured against a Ag/AgCl reference electrode (CH Instruments, 1 M KCl). CV and DPV experiments were performed in a nitrogen saturated 0.1 M potassium phosphate (KH2PO4) buffered solution at pH 7.0. The concentration of the analyte was 1.0 mM for all experiments.

[2] = Methylene blue catalyzed photooxidation of DHTz to tetrazine
Protocol: Upon addition of horseradish peroxidase (15 nM) the UV-vis spectrum was monitored every 10 seconds. With 50% conversion after 100 seconds, complete conversion of 3a to 4a is observed after 600 seconds, as evidenced by the decrease in the absorption at 292 nm and increase at 325 nm with an isosbestic point at 303 nm. Similar spectral changes are observed when 3a is electrochemically oxidized to 4a in aqueous solution, or when the oxidation of 3a to 4a is photocatalyzed by methylene blue. […] Methylene blue was considered a particularly attractive sensitizer due to its clinical relevance, low molecular weight, low toxicity, high solubility, and an absorption spectrum (λmax 665 nm) that extends to the near IR. Further, methylene blue has previously been explored for applications in photodynamic therapy based on oxidation of indole-3-acetic acid. Rose bengal (λmax 550 nm), used in a range of biomedical applications, was also identified as an excellent sensitizer. […] […] […] The mechanism of photooxidation more likely involves electron transfer and is the subject of ongoing study.
Thus, a PBS solution of 3a was sparged with 98% nitrogen and 2% air, such that the final O2 concentration was 5 μM.
Oxidation of 3a to 4a was monitored by recording absorbance at 325 nm every 30 seconds. Cuvettes for these experiments were washed with EDTA/PBS as described in the General Considerations (section 2.1). […]

[3] = biological target: T1, APEX2 (SEQ ID NO:1) (Glycine max, UniProt Q43758, A134P/E112K/K14D/W41F); assay: Oxidation of DHT by APEX2, UV-Vis initial rates and kinetic parameters; assay type: biochemical; conditions: for Initial rate of oxidation of DHT by APEX2 (SEQ ID NO: 1) / Initial rate of oxidation of DHT by APEX2 (SEQ ID NO: 1) + SOD: PBS, 100 μM EDTA, first 100 s; for Initial rate of oxidation of DHT by APEX2 (SEQ ID NO: 1) + SOD: SOD 1 μM
T1 sequence (Q43758 1-250 A134P/E112K/K14D/W41F): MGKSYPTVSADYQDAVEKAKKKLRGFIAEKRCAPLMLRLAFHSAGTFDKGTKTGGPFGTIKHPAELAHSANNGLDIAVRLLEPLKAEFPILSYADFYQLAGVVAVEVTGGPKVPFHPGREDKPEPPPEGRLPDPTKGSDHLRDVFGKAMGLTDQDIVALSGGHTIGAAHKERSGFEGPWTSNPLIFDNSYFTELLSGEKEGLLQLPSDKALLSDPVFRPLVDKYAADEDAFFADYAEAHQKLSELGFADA
Protocol: UV-Vis and fluorescence measurements were conducted in quartz cuvettes. All reactions were conducted in phosphate buffered saline (PBS) containing 100 μM EDTA with a pH=7.4. The PBS was prepared by adding 25 mM phosphate salts (Na2HPO4 and NaH2PO4), 100 mM NaCl, 100 μM EDTA to DI water. EDTA was added to quench free metals that can oxidize DHT. The buffer was pH adjusted to 7.4 using 1 mM HCl and 1 mM NaOH. UV experiments were stirred at 25° C. in a temperature-controlled cuvette holder of the spectrophotometer. Solutions of 15 or 16 were prepared from methanol stock solutions.
15 or 16 (60 μM) from methanol stock solutions was added to PBS containing 100 μM EDTA. After 10s, APEX2 (SEQ ID NO:1) (275 nM) was dosed in and oxidation was monitored at 325 nm for 15 and 285 nm for 16 at 60s intervals (FIG. 10B-C).
16 (15 μM) DHT from methanol stock solutions was added to PBS containing 100 μM EDTA. After 10s, APEX2 (SEQ ID NO:1) (275 nM) or HRP (15 nM) was dosed in and oxidation was monitored at 285 nm at 10s intervals (FIG. 10D)
SOD (1 μM) was added to PBS containing 100 μM EDTA. 15 or 16 (60 μM) was added from methanol stock solutions. After 10s, APEX2 (SEQ ID NO:1) or F41A APEX2 (275 nM) was dosed in and oxidation was monitored at 325 nm for 15 and 285 nm for 16 at 60s intervals.
The initial rate of oxidation was calculated from the first 100 seconds after APEX2 (SEQ ID NO:1) or F41A APEX2 was added ([…]). In the assays where SOD was added, SOD (1 μM) was added to PBS containing 100 μM EDTA and 15 or 16 was dosed in. 10 seconds later, APEX2 (SEQ ID NO:1) or F41A APEX2 ([…]) was added and the rate of oxidation was calculated from the first 100 seconds after APEX2 (SEQ ID NO:1) or F41A APEX2 ([…]) addition. The initial rate of oxidation was adjusted to background oxidation of DHT in PBS with 100 μM EDTA. Kinetic parameters (Table 2) were determined using GraphPad's Prism 6 software from the data presented below (Table 3-4).

Structure (SMILES): O=C(O)CCC(=O)Nc1ccc(C2=NNC(c3ccccn3)=NN2)nc1 [3a, 4-oxo-4-((6-(6-(pyridin-2-yl)-1,4-dihydro-1,2,4,5-tetrazin-3-yl)pyridin-3-yl)amino)butanoic Acid]
- voltammogram peak (electrochemical oxidation) [1]: 0.02 V
- time to quantitative conversion to tetrazine 4a ([2]; 3a 21 μM, methylene blue 4 μM, 660 nm LED 9.1 mW/cm^2, pH 7.4 PBS): ≤ 200 s
- time to complete conversion of 3a to 4a ([2]; hypoxia model, O2 5 μM, methylene blue 7 μM, 660 nm): ≤ 30 min
- conversion of 3a to 4a ([2]; methylene blue 4 μM, ambient light, 2 h): 47%

Structure (SMILES): O=C(O)CCCC(=O)Nc1ccc(C2=NNC(c3ccccn3)=NN2)nc1 [compound 15]
- rate of catalysis by APEX2 slower than by HRP ([3]; APEX2 versus HRP (FIG. 10D)): approximately 100 ×
- Initial rate of oxidation of DHT by APEX2 (SEQ ID NO: 1) ([3]; DHT 5 μM): 0.903 +/− 0.026 ×10^−8 M/s
- Initial rate of oxidation of DHT by APEX2 (SEQ ID NO: 1) + SOD ([3]; DHT 6 μM): 1.104 +/− 0.028 ×10^−8 M/s
- Initial rate of oxidation of DHT by APEX2 (SEQ ID NO: 1) ([3]; DHT 10 μM): 1.286 +/− 0.141 ×10^−8 M/s
- Initial rate of oxidation of DHT by APEX2 (SEQ ID NO: 1) + SOD ([3]; DHT 12 μM): 1.831 +/− 0.169 ×10^−8 M/s
- Initial rate of oxidation of DHT by APEX2 (SEQ ID NO: 1) ([3]; DHT 15 μM): 1.442 +/− 0.298 ×10^−8 M/s
- Initial rate of oxidation of DHT by APEX2 (SEQ ID NO: 1) + SOD ([3]; DHT 15 μM): 1.765 +/− 0.172 ×10^−8 M/s
- Initial rate of oxidation of DHT by APEX2 (SEQ ID NO: 1) ([3]; DHT 20 μM): 1.872 +/− 0.028 ×10^−8 M/s
- Initial rate of oxidation of DHT by APEX2 (SEQ ID NO: 1) + SOD ([3]; DHT 20 μM): 2.166 +/− 0.201 ×10^−8 M/s
- Initial rate of oxidation of DHT by APEX2 (SEQ ID NO: 1) ([3]; DHT 25 μM): 1.628 +/− 0.133 ×10^−8 M/s
- Initial rate of oxidation of DHT by APEX2 (SEQ ID NO: 1) + SOD ([3]; DHT 25 μM): 2.937 +/− 0.487 ×10^−8 M/s
- Initial rate of oxidation of DHT by APEX2 (SEQ ID NO: 1) ([3]; DHT 30 μM): 1.878 +/− 0.055 ×10^−8 M/s
- Initial rate of oxidation of DHT by APEX2 (SEQ ID NO: 1) + SOD ([3]; DHT 30 μM): 2.418 +/− 0.038 ×10^−8 M/s
- Initial rate of oxidation of DHT by APEX2 (SEQ ID NO: 1) ([3]; DHT 40 μM): 2.305 +/− 0.101 ×10^−8 M/s
- Initial rate of oxidation of DHT by APEX2 (SEQ ID NO: 1) + SOD ([3]; DHT 40 μM): 3.230 +/− 0.348 ×10^−8 M/s
- Initial rate of oxidation of DHT by APEX2 (SEQ ID NO: 1) ([3]; DHT 50 μM): 2.445 +/− 0.303 ×10^−8 M/s
- Initial rate of oxidation of DHT by APEX2 (SEQ ID NO: 1) + SOD ([3]; DHT 50 μM): 3.305 +/− 0.436 ×10^−8 M/s
- Initial rate of oxidation of DHT by APEX2 (SEQ ID NO: 1) ([3]; DHT 60 μM): 2.603 +/− 0.306 ×10^−8 M/s
- Initial rate of oxidation of DHT by APEX2 (SEQ ID NO: 1) + SOD ([3]; DHT 60 μM): 4.169 +/− 0.242 ×10^−8 M/s
- Initial rate of oxidation of DHT by APEX2 (SEQ ID NO: 1) ([3]; DHT 70 μM): 3.197 +/− 0.025 ×10^−8 M/s
- Initial rate of oxidation of DHT by APEX2 (SEQ ID NO: 1) ([3]; DHT 75 μM): 3.460 +/− 0.492 ×10^−8 M/s
- Initial rate of oxidation of DHT by APEX2 (SEQ ID NO: 1) + SOD ([3]; DHT 75 μM): 4.196 +/− 0.444 ×10^−8 M/s
- Initial rate of oxidation of DHT by APEX2 (SEQ ID NO: 1) ([3]; DHT 85 μM): 3.978 +/− 0.119 ×10^−8 M/s
- Initial rate of oxidation of DHT by APEX2 (SEQ ID NO: 1) + SOD ([3]; DHT 85 μM): 4.939 +/− 0.202 ×10^−8 M/s
